Experimental findings from ChEMBL document CHEMBL1201862, “PubChem BioAssay data set” (2004) are described below.

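All cell lines were grown in 96-well plates and treated with compound for 48 hours. GI50 = concentration required for 50% inhibition of growth.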 The source made the active and inactive calls. Cut-off read from the data, not from the text of the source: active = GI50 up to about 1.1 µM and inactive = higher.

Some test systems named below: HT-29; SR; SW-620; KM12; T47D; EKVX; HCT-116; MOLT-4; NCI-H23; Hs-578T; NCI-H522; CAKI-1; DU-145; MDA-N; UACC-257; TK-10; SF-295; UO-31; IGROV-1; COLO 205.
Assay in all cases: NCI tumour cell line growth inhibition, 48 h

On to `Nc1nc(Cc2ccccc2)nc(Cc2ccccc2)c1-c1ccccc1`, for which the GI50 in the assay with HT-29 was 21.9 µM (inactive); in the assay with SR it was 20.8 µM (inactive); in the assay on SW-620, 33.9 µM (inactive); in the assay on KM12 it was 28.1 µM (inactive); in the assay on T47D, 36.8 µM (inactive); with EKVX, 11.4 µM (inactive). Further, the GI50 in the assay on HCT-116 was 19.5 µM (inactive); with MOLT-4, 11.2 µM (inactive); with NCI-H23 it was 17.7 µM (inactive); in the assay with Hs-578T it was 85.7 µM (inactive); in the assay on NCI-H522 it was 16.9 µM (inactive); with CAKI-1 it was 39.5 µM (inactive). Moreover, the GI50 in the assay with DU-145 was 22.8 µM (inactive); with MDA-N, 16.1 µM (inactive); with UACC-257, 37.3 µM (inactive); in the assay on TK-10, 56.9 µM (inactive); in the assay on SF-295, 25.6 µM (inactive); in the assay on UO-31, 27 µM (inactive). Also, the GI50 with IGROV-1 was 26.4 µM (inactive).
As to `OCc1ccn2c1[C@@H](O)CC2`, the GI50 in the assay with HT-29, with SR, with SW-620, with KM12, with T47D and in the assay on EKVX was > 100 µM (inactive) in each case. For the same molecule, the GI50 with COLO 205 was > 100 µM (inactive); with HCT-116, > 100 µM (inactive); in the assay on MOLT-4 it was > 100 µM (inactive); in the assay on NCI-H23, > 100 µM (inactive); in the assay with Hs-578T, > 100 µM (inactive); in the assay on NCI-H522, 1.55 µM (inactive). Besides, the GI50 in the assay with CAKI-1, in the assay on DU-145, in the assay on MDA-N, in the assay with UACC-257, with TK-10 and in the assay on SF-295 was > 100 µM (inactive) throughout. The GI50 with IGROV-1 is > 100 µM (inactive).
As to `CO/N=C(/C(=O)OC)c1ccccc1COc1ccccc1C(F)(F)F`, the GI50 with HT-29 is 26.1 µM (inactive); in the assay with SR it was 8.32 µM (inactive); in the assay on KM12, 30.2 µM (inactive); in the assay on T47D it was 25.2 µM (inactive); in the assay on EKVX, 11.3 µM (inactive); with COLO 205, 25.4 µM (inactive). In addition, the GI50 in the assay on HCT-116 was 25.1 µM (inactive); in the assay on MOLT-4, 15.1 µM (inactive); in the assay with NCI-H23, 22.1 µM (inactive); in the assay on Hs-578T, 47.3 µM (inactive); with NCI-H522, 14.7 µM (inactive); in the assay with CAKI-1 it was 20.1 µM (inactive). The GI50 was 37 µM (inactive) in the assay on DU-145; 28.1 µM (inactive) in the assay on MDA-N; 16 µM (inactive) in the assay with UACC-257; 54.5 µM (inactive) in the assay with TK-10; 10.7 µM (inactive) in the assay with SF-295; 39.1 µM (inactive) with UO-31. Further, the GI50 with IGROV-1 was 20.7 µM (inactive).
As for `CC(C)OC(=O)NNc1cccc(Cl)c1`, the GI50 in the assay with HT-29, in the assay with SR, in the assay on SW-620, in the assay with KM12, in the assay on T47D and in the assay with EKVX was > 100 µM (inactive) throughout. The GI50 was > 100 µM (inactive) in the assay on COLO 205; > 100 µM (inactive) with HCT-116; > 100 µM (inactive) in the assay on MOLT-4; > 100 µM (inactive) in the assay with NCI-H23; > 100 µM (inactive) in the assay with Hs-578T; 61.7 µM (inactive) with CAKI-1. The GI50 in the assay with DU-145, with MDA-N, in the assay on UACC-257, in the assay with TK-10, in the assay on SF-295 and in the assay with UO-31 was > 100 µM (inactive) each time.
In the case of `CC(=O)Nc1ccc(Nc2cc(O)nc(O)n2)cc1`, the GI50 in the assay with HT-29 was > 100 µM (inactive); with SR, > 100 µM (inactive); in the assay on SW-620 it was > 100 µM (inactive); with KM12, > 100 µM (inactive); in the assay on T47D it was 14.1 µM (inactive); in the assay with EKVX, > 100 µM (inactive). The GI50 with COLO 205 was > 100 µM (inactive); with HCT-116 it was > 100 µM (inactive); in the assay with MOLT-4 it was 18.2 µM (inactive); in the assay on Hs-578T it was > 100 µM (inactive); in the assay on DU-145 it was > 100 µM (inactive); in the assay on MDA-N, > 100 µM (inactive). The GI50 in the assay with UACC-257, in the assay on TK-10, with SF-295, with UO-31 and in the assay on IGROV-1 was > 100 µM (inactive) in each case.
Turning to `Nc1c(S(=O)(=O)O)cc(Nc2cccc(S(=O)(=O)/C=C/S(=O)(=O)O)c2)c2c1C(=O)c1ccccc1C2=O`, the GI50 in the assay with HT-29, with SR, with SW-620, in the assay on KM12, in the assay with T47D and in the assay with EKVX was > 100 µM (inactive) each time. In addition, the GI50 was > 100 µM (inactive) with COLO 205; > 100 µM (inactive) in the assay with HCT-116; > 100 µM (inactive) in the assay on MOLT-4; > 100 µM (inactive) in the assay on NCI-H23; 73.3 µM (inactive) in the assay with Hs-578T; > 100 µM (inactive) in the assay on NCI-H522. Further, the GI50 with CAKI-1, in the assay on DU-145, in the assay with MDA-N, in the assay on UACC-257, with TK-10 and in the assay with SF-295 was > 100 µM (inactive) throughout. Further, the GI50 in the assay on IGROV-1 is > 100 µM (inactive).
Regarding `COC1C=C(NCC2(CO)CCC2)N=C(N)N1` (centres undefined), the GI50 with HT-29, with SR, with SW-620, with KM12, in the assay with T47D and in the assay with EKVX was > 100 µM (inactive) in each case. For the same molecule, the GI50 is > 100 µM (inactive) in the assay with COLO 205; > 100 µM (inactive) in the assay with HCT-116; > 100 µM (inactive) in the assay on MOLT-4; 24.8 µM (inactive) in the assay with NCI-H23; > 100 µM (inactive) in the assay with Hs-578T; > 100 µM (inactive) with NCI-H522. For the same molecule, the GI50 in the assay with CAKI-1, in the assay with DU-145, with MDA-N, in the assay on UACC-257, in the assay with SF-295 and in the assay with UO-31 was > 100 µM (inactive) each time. Further, the GI50 in the assay with IGROV-1 is > 100 µM (inactive).
`O=C(O)c1ccc(/N=C(\C(=N\c2ccc(C(=O)O)cc2)c2ccccc2)c2ccccc2)cc1`: the GI50 in the assay on SR, with SW-620, with KM12, in the assay on T47D, in the assay on EKVX and in the assay with COLO 205 was > 100 µM (inactive) each time. Besides, the GI50 with HCT-116, with MOLT-4, in the assay with NCI-H23, in the assay on Hs-578T, in the assay on DU-145 and in the assay with MDA-N was > 100 µM (inactive) each time. Also, the GI50 in the assay on UACC-257, with TK-10, in the assay with SF-295, in the assay on UO-31 and in the assay with IGROV-1 was > 100 µM (inactive) throughout.
With `COc1cc2c3cc1Oc1c(OC)c(OC)cc4c1C(=NCC4)Cc1ccc(cc1)Oc1cc(ccc1O)C[C@H]3N(C)CC2`, the GI50 was 10.8 µM (inactive) in the assay on HT-29; 5.74 µM (inactive) with SR; 17.3 µM (inactive) in the assay on SW-620; 15 µM (inactive) in the assay with KM12; 21 µM (inactive) with T47D; 23.2 µM (inactive) in the assay with EKVX. Further, the GI50 in the assay on COLO 205 was 13.5 µM (inactive); with HCT-116, 12 µM (inactive); with MOLT-4, 11.9 µM (inactive); in the assay with NCI-H23, 19.1 µM (inactive); with Hs-578T, 17.6 µM (inactive); in the assay on NCI-H522, 10.7 µM (inactive). Also, the GI50 was 20.6 µM (inactive) in the assay on CAKI-1; 25.4 µM (inactive) in the assay on DU-145; 16.6 µM (inactive) in the assay on MDA-N; 16 µM (inactive) with UACC-257; 20.6 µM (inactive) in the assay with TK-10; 19.4 µM (inactive) with SF-295. The GI50 in the assay on IGROV-1 is 25.4 µM (inactive).
For the molecule `CN(C)CCCN1c2ccc3ccccc3c2Sc2cccc(Cl)c21`, the GI50 in the assay on HT-29 is 2.04 µM (inactive); with SW-620, 2.04 µM (inactive); with KM12, 2.08 µM (inactive); in the assay on T47D, 2.46 µM (inactive); in the assay with EKVX, 2.38 µM (inactive); in the assay with COLO 205, 1.85 µM (inactive). For the same molecule, the GI50 in the assay on HCT-116 is 3.79 µM (inactive); in the assay with MOLT-4, 2.14 µM (inactive); with NCI-H23, 10.6 µM (inactive); in the assay on Hs-578T it was 0.665 µM (active); with NCI-H522 it was 2.61 µM (inactive); with CAKI-1 it was 5.33 µM (inactive). Further, the GI50 was 4.54 µM (inactive) with DU-145; 2.38 µM (inactive) in the assay on MDA-N; 1.69 µM (inactive) in the assay with UACC-257; 2.52 µM (inactive) with TK-10; 3.91 µM (inactive) in the assay with SF-295; 2.79 µM (inactive) with UO-31. Also, the GI50 with IGROV-1 was 1.54 µM (inactive).
As for `CCN(CC)CCSc1nc2c(c(=N)n1-c1ccccc1)c(=S)n(-c1ccccc1)c(=S)n2-c1ccccc1`, the GI50 is 1.77 µM (inactive) in the assay with HT-29; 0.257 µM (active) with SR; 1.67 µM (inactive) with SW-620; 5.69 µM (inactive) with KM12; 2.61 µM (inactive) with T47D; 2.54 µM (inactive) in the assay on EKVX. The GI50 is 1.66 µM (inactive) with COLO 205; 2.06 µM (inactive) in the assay on HCT-116; 0.194 µM (active) in the assay on MOLT-4; 3.69 µM (inactive) with NCI-H23; 2.58 µM (inactive) in the assay on Hs-578T; 0.843 µM (active) in the assay on NCI-H522. Also, the GI50 with CAKI-1 was 1.5 µM (inactive); in the assay on DU-145, 1.67 µM (inactive); in the assay with MDA-N, 2.36 µM (inactive); in the assay on UACC-257, 1.72 µM (inactive); with TK-10, 1.73 µM (inactive); in the assay with SF-295, 12.8 µM (inactive). Besides, the GI50 with IGROV-1 was 1.64 µM (inactive).
